Test results: patent EP0738149B1 (priority 1994, dated 1995)

System: mechanically dissociated neonatal rat cerebellum
Assay: Enhancement of cell survival in cultures of neonatal rat cerebellum (no NMDA)
Type: cell-based
Conditions: 24 hours after addition, percentage of the number of control cells on the fourth day
Method: The cerebellum was aseptically dissociated from 6 or 7-day old rat pups and placed in a 15ml sterile plastic conical tube containing 3ml of Dulbecco's modified Eagle's medium (DMEM) with a high glucose concentration ([…]) and 2mM (v/v) L-glutamine and an antibiotic antimitotic mixture. The cerebella were then dissociated after 20-25 passages through a sterile 13 gauge, 10cm long stainless steel needle attached to a 5ml syringe with an inserted 45 micrometer pore nylon sieve. The dissociated cells were centrifuged at 200g for 5 minutes. […] Cell viability was determined by the tryptan blue exclusion test.
Cells were plated at a density of 200/mm^2 on poly-L-lysine coated surfaces. Poly-L-lysine coated glass coverslips were prepared at least one hour in advance of plating by immersing sterile coverslips in sterile distilled water solution containing 15 microgram/ml poly-L-lysine, and washing in sterile water just prior to use. […] After three days in culture, the media was replaced with media containing the desired test compound. Each test compound was tested in duplicate. Toxic-dose response was determined for each compound.
Cell cultures were grown as described above but in the absence of NMDA and after 3 days a dose of test compound was added. Cell survival was monitored as described above.

SMILES: CC(=O)N[C@@H]1CCc2ccccc21 [Example 18, (R)-N-Acetyl-1-aminoindan]
- % ENHANCED SURVIVAL (0.01 µM): 145%
- % ENHANCED SURVIVAL (0.10 µM): 130%
- % ENHANCED SURVIVAL (1.00 µM): 126%
